System: patients with schizophrenia
Assay: Estimated correlation between CBD plasma concentration and percentage change of PANSS score at day 14
Format: in vivo
Details: for Estimated CBD plasma concentration, PANSS_N, average / Estimated CBD plasma concentration, PANSS_P, average / Estimated CBD plasma concentration, PANSS_T, average / Estimated CBD plasma concentration, PANSS_G, average: two weeks after commencement
From the text: In general, it is expected that a percentage change of 50% of the PANSS score(s) vis-à-vis the baseline score after four to six weeks of treatment indicates a significant improvement of the PANSS score(s) (see Correll C. U., “Quantifying clinical relevance in the treatment of schizophrenia, Clinical Therapeutics”, Vol. 33, Number 12, 2011, B16-B39).
Since the PANSS score(s) cover symptoms experienced or observed during the preceding 7 days, the minimum required observation period is one week. To avoid an overlap to the observation of initial symptoms, a treatment period of 2 weeks is considered a minimum reliable period. Therefore, we analyzed the treatment effect after 2 weeks of treatment. Due to the analyzed shortened treatment period a percentage change of 25% of the PANSS score(s) vis-à-vis the baseline score indicates a significant improvement of the PANSS score(s).

C=C(C)[C@@H]1CCC(C)=C[C@H]1c1c(O)cc(CCCCC)cc1O [CBD, cannabidiol]
Estimated CBD plasma concentration, PANSS_N, average (PANSS delta 10% vs baseline, range (12.9; 28.9)): 17.8 µg/L | Estimated CBD plasma concentration, PANSS_P, average (PANSS delta 10% vs baseline, range (13.0; 35.7)): 19.1 µg/L | Estimated CBD plasma concentration, PANSS_T, average (PANSS delta 10% vs baseline, range (13.4; 25.5)): 17.5 µg/L | Estimated CBD plasma concentration, PANSS_N, average (PANSS delta 20% vs baseline, range (25.7; 57.7)): 35.6 µg/L | Estimated CBD plasma concentration, PANSS_P, average (PANSS delta 20% vs baseline, range (26.0; 71.4)): 38.2 µg/L | Estimated CBD plasma concentration, PANSS_G, average (PANSS delta 20% vs baseline, range (26.6; 49.2)): 34.5 µg/L | Estimated CBD plasma concentration, PANSS_T, average (PANSS delta 20% vs baseline, range (26.7; 50.9)): 35.0 µg/L | Estimated CBD plasma concentration, PANSS_N, average (PANSS delta 25% vs baseline, range (32.2; 72.1)): 44.5 µg/L | Estimated CBD plasma concentration, PANSS_P, average (PANSS delta 25% vs baseline, range (32.5; 89.3)): 47.7 µg/L | Estimated CBD plasma concentration, PANSS_G, average (PANSS delta 25% vs baseline, range (33.2; 61.5)): 43.1 µg/L | Estimated CBD plasma concentration, PANSS_T, average (PANSS delta 25% vs baseline, range (33.4; 63.7)): 43.8 µg/L | Estimated CBD plasma concentration, PANSS_N, average (PANSS delta 30% vs baseline, range (38.6; 86.6)): 53.4 µg/L | Estimated CBD plasma concentration, PANSS_P, average (PANSS delta 30% vs baseline, range (39.1; 107.1)): 57.2 µg/L | Estimated CBD plasma concentration, PANSS_G, average (PANSS delta 30% vs baseline, range (39.8; 73.8)): 51.8 µg/L | Estimated CBD plasma concentration, PANSS_T, average (PANSS delta 30% vs baseline, range (40.1; 76.4)): 52.6 µg/L | Estimated CBD plasma concentration, PANSS_N, average (PANSS delta 40% vs baseline, range (51.5; 115.4)): 71.2 µg/L | Estimated CBD plasma concentration, PANSS_P, average (PANSS delta 40% vs baseline, range (52.1; 142.8)): 76.3 µg/L | Estimated CBD plasma concentration, PANSS_G, average (PANSS delta 40% vs baseline, range (53.1; 98.4)): 69.0 µg/L | Estimated CBD plasma concentration, PANSS_T, average (PANSS delta 40% vs baseline, range (53.4; 101.9)): 70.1 µg/L | Estimated CBD plasma concentration, PANSS_N, average (PANSS delta 50% vs baseline, range (64.3; 144.3)): 89.0 µg/L | Estimated CBD plasma concentration, PANSS_P, average (PANSS delta 50% vs baseline, range (65.1; 178.5)): 95.4 µg/L | Estimated CBD plasma concentration, PANSS_G, average (PANSS delta 50% vs baseline, range (66.4; 123.0)): 86.3 µg/L | Estimated CBD plasma concentration, PANSS_T, average (PANSS delta 50% vs baseline, range (66.8; 127.3)): 87.6 µg/L | Estimated CBD plasma concentration, PANSS_P, average (PANSS delta 60% vs baseline, range (78.1; 214.2)): 114.5 µg/L | Estimated CBD plasma concentration, PANSS_G, average (PANSS delta 60% vs baseline, range (79.7; 147.6)): 103.5 µg/L | Estimated CBD plasma concentration, PANSS_T, average (PANSS delta 60% vs baseline, range (80.1; 152.8)): 105.1 µg/L | Estimated CBD plasma concentration, PANSS_N, average (PANSS delta 70% vs baseline, range (90.1; 202.0)): 124.6 µg/L | Estimated CBD plasma concentration, PANSS_P, average (PANSS delta 70% vs baseline, range (91.1; 249.9)): 133.6 µg/L | Estimated CBD plasma concentration, PANSS_G, average (PANSS delta 70% vs baseline, range (93.0; 172.2)): 120.8 µg/L | Estimated CBD plasma concentration, PANSS_T, average (PANSS delta 70% vs baseline, range (93.5; 178.3)): 122.6 µg/L | Estimated CBD plasma concentration, PANSS_N, average (PANSS delta 75% vs baseline, range (96.5; 216.4)): 133.5 µg/L | Estimated CBD plasma concentration, PANSS_P, average (PANSS delta 75% vs baseline, range (97.6; 267.8)): 143.1 µg/L | Estimated CBD plasma concentration, PANSS_G, average (PANSS delta 75% vs baseline, range (99.6; 184.5)): 129.4 µg/L | Estimated CBD plasma concentration, PANSS_T, average (PANSS delta 75% vs baseline, range (100.1; 191.0)): 131.4 µg/L | Estimated CBD plasma concentration, PANSS_N, average (PANSS delta 80% vs baseline, range (102.9; 230.8)): 142.4 µg/L | Estimated CBD plasma concentration, PANSS_P, average (PANSS delta 80% vs baseline, range (104.1; 285.6)): 152.6 µg/L | Estimated CBD plasma concentration, PANSS_G, average (PANSS delta 80% vs baseline, range (106.3; 196.8)): 138.0 µg/L | Estimated CBD plasma concentration, PANSS_T, average (PANSS delta 80% vs baseline, range ([…]; 203.7)): 140.2 µg/L | Estimated CBD plasma concentration, PANSS_N, average (PANSS delta 90% vs baseline, range (115.8; 259.7)): 160.2 µg/L | Estimated CBD plasma concentration, PANSS_P, average (PANSS delta 90% vs baseline, range (117.2; 321.3)): 171.7 µg/L | Estimated CBD plasma concentration, PANSS_G, average (PANSS delta 90% vs baseline, range (119.5; 221.4)): 155.3 µg/L | Estimated CBD plasma concentration, PANSS_T, average (PANSS delta 90% vs baseline, range (120.2; 229.2)): 157.7 µg/L | Estimated CBD plasma concentration, PANSS_N, average (PANSS delta 100% vs baseline, range (128.7; 288.5)): 178.0 µg/L | Estimated CBD plasma concentration, PANSS_P, average (PANSS delta 100% vs baseline, range (130.2; 357.0)): 190.8 µg/L | Estimated CBD plasma concentration, PANSS_G, average (PANSS delta 100% vs baseline, range (132.8; 246.0)): 172.5 µg/L | Estimated CBD plasma concentration, PANSS_T, average (PANSS delta 100% vs baseline, range (133.5; 254.6)): 175.2 µg/L | CBD plasma concentration that results in the required percentage change (25%) of the PANSS score(s) (after 2 weeks of treatment): at least 25 μg/l

Source: US20240192237A1 (curantis UG, priority 2021, published 2024)
